Where a name gives a salt, the structure may show the parent alone. Where only a bound is given, the exact number is not on record here.

This assay has as its system PMS1. The experiment in a line: Mini-Gene Reporter Assay—PMS1 (firefly luciferase mini-gene reporter transiently transfected into HEK293 cells). In kind it is cell-based. The conditions noted are these: Homo sapiens, mini-gene firefly luciferase reporter in HEK293 cells; for activation at 5 µM: read-out: PMS1 % Effect at 5 uM. Put shortly:
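Luminescence (RLU) read-out of exon inclusion: compound dilutions, tested in duplicate, act on transiently transfected HEK293 cells carrying a firefly luciferase reporter fused downstream of the PMS1 skipped-exon region. Potency derived by Levenberg-Marquardt curve fitting, with percent effect at 5 μM.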

For the compound `CCOc1cc2nn(C)cc2cc1C(=O)Nc1cnc(N2C[C@@H](F)C[C@H]2CN)nc1` [Compound 427], the activation at 5 µM is less than 50%.

On to `CCOc1cc2nn(C)cc2cc1C(=O)Nc1cnc(NC[C@@H]2C[C@H]3CC[C@@H](C2)N3)cn1` [Compound 359], for which the activation at 5 µM is less than 50%.

`CCOc1cc2nc(C)cn2cc1C(=O)Nc1ccc(N2C[C@H]3CNCC[C@H]32)nn1` (racemic) [Compound 239] came in with an IC50 of 1000 to 10000 nM.

In the case of `CCOc1cn2nc(C)cc2cc1C(=O)Nc1cnc(N[C@H]2CCCNC2)cn1` [Compound 554], the activation at 5 µM was greater than 75%.

In the case of `CCOc1cn2nc(C)cc2cc1C(=O)Nc1cnc(NCCNCCOC)cn1` [Compound 531], the activation at 5 µM was less than 50%.

Turning to `COc1cc2nc(C)cn2cc1C(=O)Nc1ccc(N(C)C2CCNCC2)cc1F` [Compound 169, N-(2-fluoro-4-(methyl(piperidin-4-yl)amino)phenyl)-7-methoxy-2-methylimidazo[1,2-a]pyridine-6-carboxamide], the activation at 5 µM fell in the range of 50 to 75%.

Consider `CCOc1cc2nn(C)cc2cc1C(=O)Nc1cnc(N2C[C@@H](F)C[C@H]2CNC)nc1` [Compound 440], for which the activation at 5 µM is less than 50%.

Take `CCOc1cc2nn(C)cc2cc1C(=O)Nc1cnc(NC[C@H]2C[C@@](F)(CN)C2)nc1` [Compound 391]: the activation at 5 µM is less than 50%.

On to `CCOc1cn2nc(C)cc2cc1C(=O)Nc1cnc(NCCC2CCCCN2)nc1` (stereo not drawn) [Compound 588], for which the activation at 5 µM is less than 50%.

In the case of `CCOc1cn2nc(C)cc2cc1C(=O)Nc1cnc(N(C)C[C@H]2CCCN2)nc1` [Compound 575], the activation at 5 µM is less than 50%.

For the compound `CCOc1cn2nc(C)cc2cc1C(=O)Nc1cnc(N2CC(N)CC(O)C2)cn1` (stereo not drawn) [Compound 535], the activation at 5 µM is greater than 75%.

As for `CCOc1cn2nc(C)cc2cc1C(=O)Nc1cnc(N2CCC(N)(CC)CC2)cn1` [Compound 502], the activation at 5 µM is greater than 75%.

As for `COc1cc2nc(C)cn2cc1C(=O)Nc1ccc(N2CCCNCC2)cc1F` [Compound 175, N-(4-(1,4-diazepan-1-yl)-2-fluorophenyl)-7-methoxy-2-methylimidazo[1,2-a]pyridine-6-carboxamide], the IC50 was less than 1000 nM.

As to `CCOc1cc2nc(C)cn2cc1C(=O)Nc1cnc(N2CCNCC2C)cn1` (stereo not drawn) [Compound 697], the activation at 5 µM is greater than 75%.

Turning to `CCOc1cc2nc(C)cn2cc1C(=O)Nc1ccc(N(C)C2CCNCC2)nn1` [Compound 292], the IC50 is 1000 to 10000 nM.

On to `CCOc1cn2nc(C)cc2cc1C(=O)Nc1cnc(NCCNC)cn1` [Compound 552], for which the activation at 5 µM was greater than 75%.

Take `CCOc1cn2nc(C)cc2cc1C(=O)Nc1cnc(N2CCC(NC)CC2)cn1` [Compound 553]: the activation at 5 µM is greater than 75%.

In the case of `CCOc1cc2nn(C)cc2cc1C(=O)Nc1cnc(N2CCCNC(C)C2)cn1` (stereo not drawn) [Compound 332], the activation at 5 µM was greater than 75%.

Take `CCOc1cc2nn(C)cc2cc1C(=O)Nc1cnc(NC[C@@H]2CCCN2)nc1` [Compound 470]: the activation at 5 µM was less than 50%.

Consider `CCOc1cc2nc(C)cn2cc1C(=O)Nc1cc(C)c(N2CCN[C@@H](C)C2)nn1` [Compound 741, (S)-7-ethoxy-2-methyl-N-(5-methyl-6-(3-methylpiperazin-1-yl)pyridazin-3-yl)imidazo[1,2-a]pyridine-6-carboxamide formate], for which the IC50 lay within 1000 to 10000 nM.

`CCOc1cc2nn(C)cc2cc1C(=O)Nc1cnc(NCC2CNCCC2(F)F)nc1` (stereo not drawn) [Compound 411]: the activation at 5 µM was less than 50%.

For the compound `CCOc1cc2nn(C)cc2cc1C(=O)Nc1cnc(N2CCC(N)CC2)nc1` [Compound 481], the activation at 5 µM was less than 50%.

As to `CCOc1cn2nc(C)cc2cc1C(=O)Nc1cnc(NC2CNCC2(C)C)cn1` (stereo not drawn) [Compound 500], the activation at 5 µM was less than 50%.

As to `CCOc1cn2nc(C)cc2cc1C(=O)Nc1cnc(NCC2CCNCC2)cn1` [Compound 555], the activation at 5 µM was less than 50%.

In the case of `CCOc1cn2nc(C)cc2cc1C(=O)Nc1cnc(N2CCC(C(O)C3CCNCC3)CC2)nc1` (stereo not drawn) [Compound 609], the activation at 5 µM is less than 50%.

Turning to `CCOc1cc2nc(C)cn2cc1C(=O)Nc1ccc(N2CCC[C@H]3NCC[C@H]32)nn1` (racemic) [Compound 252], the IC50 lay within 1000 to 10000 nM.

As for `CCOc1cc2nc(C)cn2cc1C(=O)Nc1ccc(N2CC3CCCC(C2)N3)nn1` [Compound 255], the IC50 was less than 1000 nM.

Take `CCOc1cc2nn(C)cc2cc1C(=O)Nc1cnc(NC[C@H]2CNCC(C)(C)O2)cn1` [Compound 312]: the activation at 5 µM was less than 50%.

For `CCOc1cc2nc(C)cn2cc1C(=O)Nc1ccc(N2CCNCC2)cn1` [Compound 130, 7-ethoxy-2-methyl-N-(5-(piperazin-1-yl)pyridin-2-yl) imidazo[1,2-a]pyridine-6-carboxamide hydrochloride], the IC50 was less than 1000 nM.

Turning to `Cc1cn2cc(C(=O)Nc3ccc(N4CCNCC4)cc3F)cc(F)c2n1` [Compound 108, 8-fluoro-N-(2-fluoro-4-(piperazin-1-yl)phenyl)-2-methylimidazo[1,2-a]pyridine-6-carboxamide hydrochloride], the IC50 fell in the range of 1000 to 10000 nM.

As a reminder, the IC50 is the concentration at which inhibition is half-maximal. Lower therefore signals higher potency.
